Measurements reported in publication PMC6409085, “Three odorant-binding proteins are involved in the behavioral response of Sogatella furcifera to rice plant volatiles” (PeerJ, 2019).
Several values for one entry are separate records, joined by “and”; a condition that tells them apart may be missing. Equal values may be shown once.

What was measured:
SfurOBP2 = SfurOBP2 (Sogatella furcifera, UniProt V5T759); test: biochemical; format: binding
Summary of the method: (§1)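 First, 2.0 µM protein in 50 mM Tris-HCl (pH 7.4) was titrated with 1-NPN to obtain K1-NPN. Then odorants (2–20 µM final) competed against 2.0 µM 1-NPN, with fluorescence (ex 337 nm) recorded after 2 min. Ki was computed from IC50 via Ki = IC50/(1 + [1-NPN]/K1-NPN).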

SfurOBP11 = SfurOBP11 (Sogatella furcifera, UniProt V5T6E3); test: biochemical; format: binding
Summary of the method: as §1

SfurOBP1 = SfurOBP1 (Sogatella furcifera, UniProt V5T8N5); test: biochemical; format: binding; conditions: for Fluorescence competitive binding assay, fluorescence intensity: OBP1, three replicate columns
Summary of the method: as §1

SfurOBP3 = SfurOBP3 (Sogatella furcifera, UniProt V5T818); test: biochemical; format: binding; conditions: for Fluorescence competitive binding assay, fluorescence intensity: OBP3, three replicate columns
Summary of the method: as §1

S. furcifera adults = test: Y-tube olfactometer behavioral trials; format: in vivo, Sogatella furcifera; conditions: odorant 50 µL/L vs hexane; adults
Summary of the method: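 Single S. furcifera adults (2 days post-emergence, starved 0.5 h) chose between odorant (100 µL of 50 µL/L on filter paper) and hexane control in a glass Y-tube, charcoal-filtered humidified air 300 mL/min per arm, 25 ± 1 °C, 50% RH. Choice scored if insect passed half an arm and stayed >1 min within 10 min; 45 insects per compound, chi-squared test.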

Chain of SfurOBP3 (V5T818 entry or part of it): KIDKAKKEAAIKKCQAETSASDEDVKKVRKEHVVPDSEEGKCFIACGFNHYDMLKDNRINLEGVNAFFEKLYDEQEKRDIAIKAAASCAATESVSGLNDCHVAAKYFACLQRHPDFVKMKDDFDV
Chain of SfurOBP11 (V5T6E3 entry or part of it): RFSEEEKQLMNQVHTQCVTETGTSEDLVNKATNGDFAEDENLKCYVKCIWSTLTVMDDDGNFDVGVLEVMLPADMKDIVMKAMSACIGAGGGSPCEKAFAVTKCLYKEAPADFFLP
Chain of SfurOBP1 (V5T8N5 entry or part of it): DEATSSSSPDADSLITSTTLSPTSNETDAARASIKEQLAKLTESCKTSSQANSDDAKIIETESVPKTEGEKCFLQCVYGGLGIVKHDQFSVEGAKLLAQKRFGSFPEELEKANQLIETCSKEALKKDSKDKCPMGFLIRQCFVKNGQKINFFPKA
Chain of SfurOBP2 (V5T759 entry or part of it): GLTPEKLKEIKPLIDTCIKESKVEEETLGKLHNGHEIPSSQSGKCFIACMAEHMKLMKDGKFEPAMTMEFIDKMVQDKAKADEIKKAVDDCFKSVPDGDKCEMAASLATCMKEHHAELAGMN

SMILES: CCC/C=C/CO [(E)-2-hexenol]
- IC50 (SfurOBP2): > 20 µM
- Fluorescence competitive binding assay, OBP2 (raw fluorescence reading) (SfurOBP2; ligand concentration 2 (unit not given), replicate column 1 of 3): 18290
- Fluorescence competitive binding assay, OBP2 (raw fluorescence reading) (SfurOBP2; ligand concentration 2 (unit not given), replicate column 2 of 3): 18447
- Fluorescence competitive binding assay, OBP2 (raw fluorescence reading) (SfurOBP2; ligand concentration 2 (unit not given), replicate column 3 of 3): 18531
- Fluorescence competitive binding assay, OBP2 (raw fluorescence reading) (SfurOBP2; ligand concentration 4 (unit not given), replicate column 1 of 3): 17418
- Fluorescence competitive binding assay, OBP2 (raw fluorescence reading) (SfurOBP2; ligand concentration 4 (unit not given), replicate column 2 of 3): 17308
- Fluorescence competitive binding assay, OBP2 (raw fluorescence reading) (SfurOBP2; ligand concentration 4 (unit not given), replicate column 3 of 3): 17228
- Fluorescence competitive binding assay, OBP2 (raw fluorescence reading) (SfurOBP2; ligand concentration 6 (unit not given), replicate column 1 of 3): 16794
- Fluorescence competitive binding assay, OBP2 (raw fluorescence reading) (SfurOBP2; ligand concentration 6 (unit not given), replicate column 2 of 3): 16314
- Fluorescence competitive binding assay, OBP2 (raw fluorescence reading) (SfurOBP2; ligand concentration 6 (unit not given), replicate column 3 of 3): 16504
- Fluorescence competitive binding assay, OBP2 (raw fluorescence reading) (SfurOBP2; ligand concentration 8 (unit not given), replicate column 1 of 3): 15464
- Fluorescence competitive binding assay, OBP2 (raw fluorescence reading) (SfurOBP2; ligand concentration 8 (unit not given), replicate column 2 of 3): 15780
- Fluorescence competitive binding assay, OBP2 (raw fluorescence reading) (SfurOBP2; ligand concentration 8 (unit not given), replicate column 3 of 3): 16125
- Fluorescence competitive binding assay, OBP2 (raw fluorescence reading) (SfurOBP2; ligand concentration 10 (unit not given), replicate column 1 of 3): 15191
- Fluorescence competitive binding assay, OBP2 (raw fluorescence reading) (SfurOBP2; ligand concentration 10 (unit not given), replicate column 2 of 3): 14875
- Fluorescence competitive binding assay, OBP2 (raw fluorescence reading) (SfurOBP2; ligand concentration 10 (unit not given), replicate column 3 of 3): 15159
- Fluorescence competitive binding assay, OBP2 (raw fluorescence reading) (SfurOBP2; ligand concentration 12 (unit not given), replicate column 1 of 3): 14300
- Fluorescence competitive binding assay, OBP2 (raw fluorescence reading) (SfurOBP2; ligand concentration 12 (unit not given), replicate column 2 of 3): 14543
- Fluorescence competitive binding assay, OBP2 (raw fluorescence reading) (SfurOBP2; ligand concentration 12 (unit not given), replicate column 3 of 3): 14192
- Fluorescence competitive binding assay, OBP2 (raw fluorescence reading) (SfurOBP2; ligand concentration 14 (unit not given), replicate column 1 of 3): 13523
- Fluorescence competitive binding assay, OBP2 (raw fluorescence reading) (SfurOBP2; ligand concentration 14 (unit not given), replicate column 2 of 3): 13764
- Fluorescence competitive binding assay, OBP2 (raw fluorescence reading) (SfurOBP2; ligand concentration 14 (unit not given), replicate column 3 of 3): 13447
- Fluorescence competitive binding assay, OBP2 (raw fluorescence reading) (SfurOBP2; ligand concentration 16 (unit not given), replicate column 1 of 3): 12677
- Fluorescence competitive binding assay, OBP2 (raw fluorescence reading) (SfurOBP2; ligand concentration 16 (unit not given), replicate column 2 of 3): 12355
- Fluorescence competitive binding assay, OBP2 (raw fluorescence reading) (SfurOBP2; ligand concentration 16 (unit not given), replicate column 3 of 3): 12095
- Fluorescence competitive binding assay, OBP2 (raw fluorescence reading) (SfurOBP2; ligand concentration 18 (unit not given), replicate column 1 of 3): 11796
- Fluorescence competitive binding assay, OBP2 (raw fluorescence reading) (SfurOBP2; ligand concentration 18 (unit not given), replicate column 2 of 3): 11817
- Fluorescence competitive binding assay, OBP2 (raw fluorescence reading) (SfurOBP2; ligand concentration 18 (unit not given), replicate column 3 of 3): 11503
- Fluorescence competitive binding assay, OBP2 (raw fluorescence reading) (SfurOBP2; ligand concentration 20 (unit not given), replicate column 1 of 3): 11621
- Fluorescence competitive binding assay, OBP2 (raw fluorescence reading) (SfurOBP2; ligand concentration 20 (unit not given), replicate column 2 of 3): 11220
- Fluorescence competitive binding assay, OBP2 (raw fluorescence reading) (SfurOBP2; ligand concentration 20 (unit not given), replicate column 3 of 3): 11057
- IC50 (SfurOBP11): > 20 µM
- Fluorescence intensity, fluorescence competitive binding assay, OBP11 (SfurOBP11; ligand concentration 2, replicate 1): 34795
- Fluorescence intensity, fluorescence competitive binding assay, OBP11 (SfurOBP11; ligand concentration 2, replicate 2): 32362
- Fluorescence intensity, fluorescence competitive binding assay, OBP11 (SfurOBP11; ligand concentration 2, replicate 3): 33570
- Fluorescence intensity, fluorescence competitive binding assay, OBP11 (SfurOBP11; ligand concentration 4, replicate 1): 31605
- Fluorescence intensity, fluorescence competitive binding assay, OBP11 (SfurOBP11; ligand concentration 4, replicate 2): 31826
- Fluorescence intensity, fluorescence competitive binding assay, OBP11 (SfurOBP11; ligand concentration 4, replicate 3): 31807
- Fluorescence intensity, fluorescence competitive binding assay, OBP11 (SfurOBP11; ligand concentration 6, replicate 1): 29600
- Fluorescence intensity, fluorescence competitive binding assay, OBP11 (SfurOBP11; ligand concentration 6, replicate 2): 28910
- Fluorescence intensity, fluorescence competitive binding assay, OBP11 (SfurOBP11; ligand concentration 6, replicate 3): 29255
- Fluorescence intensity, fluorescence competitive binding assay, OBP11 (SfurOBP11; ligand concentration 8, replicate 1): 27040
- Fluorescence intensity, fluorescence competitive binding assay, OBP11 (SfurOBP11; ligand concentration 8, replicate 2): 29546
- Fluorescence intensity, fluorescence competitive binding assay, OBP11 (SfurOBP11; ligand concentration 8, replicate 3): 25961
- Fluorescence intensity, fluorescence competitive binding assay, OBP11 (SfurOBP11; ligand concentration 10, replicate 1): 25687
- Fluorescence intensity, fluorescence competitive binding assay, OBP11 (SfurOBP11; ligand concentration 10, replicate 2): 25600
- Fluorescence intensity, fluorescence competitive binding assay, OBP11 (SfurOBP11; ligand concentration 10, replicate 3): 25774
- Fluorescence intensity, fluorescence competitive binding assay, OBP11 (SfurOBP11; ligand concentration 12, replicate 1): 25617
- Fluorescence intensity, fluorescence competitive binding assay, OBP11 (SfurOBP11; ligand concentration 12, replicate 2): 23726
- Fluorescence intensity, fluorescence competitive binding assay, OBP11 (SfurOBP11; ligand concentration 12, replicate 3): 24242
- Fluorescence intensity, fluorescence competitive binding assay, OBP11 (SfurOBP11; ligand concentration 14, replicate 1): 22896
- Fluorescence intensity, fluorescence competitive binding assay, OBP11 (SfurOBP11; ligand concentration 14, replicate 2): 21710
- Fluorescence intensity, fluorescence competitive binding assay, OBP11 (SfurOBP11; ligand concentration 14, replicate 3): 22816
- Fluorescence intensity, fluorescence competitive binding assay, OBP11 (SfurOBP11; ligand concentration 16, replicate 1): 19721
- Fluorescence intensity, fluorescence competitive binding assay, OBP11 (SfurOBP11; ligand concentration 16, replicate 2): 20050
- Fluorescence intensity, fluorescence competitive binding assay, OBP11 (SfurOBP11; ligand concentration 16, replicate 3): 20211
- Fluorescence intensity, fluorescence competitive binding assay, OBP11 (SfurOBP11; ligand concentration 18, replicate 1): 19470
- Fluorescence intensity, fluorescence competitive binding assay, OBP11 (SfurOBP11; ligand concentration 18, replicate 2): 19537
- Fluorescence intensity, fluorescence competitive binding assay, OBP11 (SfurOBP11; ligand concentration 18, replicate 3): 20671
- Fluorescence intensity, fluorescence competitive binding assay, OBP11 (SfurOBP11; ligand concentration 20, replicate 1): 20038
- Fluorescence intensity, fluorescence competitive binding assay, OBP11 (SfurOBP11; ligand concentration 20, replicate 2): 19843
- Fluorescence intensity, fluorescence competitive binding assay, OBP11 (SfurOBP11; ligand concentration 20, replicate 3): 19956
- IC50 (SfurOBP1): > 20 µM
- Fluorescence competitive binding assay, fluorescence intensity (SfurOBP1; ligand concentration 2 (μM)): 5821 and 6205 and 6589
- Fluorescence competitive binding assay, fluorescence intensity (SfurOBP1; ligand concentration 4 (μM)): 7444 and 7124 and 7270
- Fluorescence competitive binding assay, fluorescence intensity (SfurOBP1; ligand concentration 6 (μM)): 8585 and 7896 and 9273
- Fluorescence competitive binding assay, fluorescence intensity (SfurOBP1; ligand concentration 8 (μM)): 8091 and 7978 and 7865
- Fluorescence competitive binding assay, fluorescence intensity (SfurOBP1; ligand concentration 10 (μM)): 8122 and 7477 and 6720
- Fluorescence competitive binding assay, fluorescence intensity (SfurOBP1; ligand concentration 12 (μM)): 5971 and 6877 and 6423
- Fluorescence competitive binding assay, fluorescence intensity (SfurOBP1; ligand concentration 14 (μM)): 6112 and 6019 and 6107
- Fluorescence competitive binding assay, fluorescence intensity (SfurOBP1; ligand concentration 16 (μM)): 6252 and 5805 and 6056
- Fluorescence competitive binding assay, fluorescence intensity (SfurOBP1; ligand concentration 18 (μM)): 8503 and 8229 and 10760
- Fluorescence competitive binding assay, fluorescence intensity (SfurOBP1; ligand concentration 20 (μM)): 7495 and 8100 and 7787
- IC50 (SfurOBP3): > 20 µM
- Fluorescence competitive binding assay, fluorescence intensity (SfurOBP3; ligand concentration 2): 55419 and 52631 and 56435
- Fluorescence competitive binding assay, fluorescence intensity (SfurOBP3; ligand concentration 4): 52848 and 53720 and 53070
- Fluorescence competitive binding assay, fluorescence intensity (SfurOBP3; ligand concentration 6): 56485 and 54348 and 51437
- Fluorescence competitive binding assay, fluorescence intensity (SfurOBP3; ligand concentration 8): 53820 and 44741 and 53024
- Fluorescence competitive binding assay, fluorescence intensity (SfurOBP3; ligand concentration 10): 50999 and 49511 and 49866
- Fluorescence competitive binding assay, fluorescence intensity (SfurOBP3; ligand concentration 12): 51314 and 45497 and 46649
- Fluorescence competitive binding assay, fluorescence intensity (SfurOBP3; ligand concentration 14): 46992 and 46379 and 46282
- Fluorescence competitive binding assay, fluorescence intensity (SfurOBP3; ligand concentration 16): 39521 and 39562 and 39433
- Fluorescence competitive binding assay, fluorescence intensity (SfurOBP3; ligand concentration 18): 45227 and 50180 and 45511
- Fluorescence competitive binding assay, fluorescence intensity (SfurOBP3; ligand concentration 20): 47692 and 45313 and 40014
- number of insects choosing hexane arm (S. furcifera adults): 9
- number of insects choosing volatilies arm (S. furcifera adults): 8
- number of insects failed (no choice) (S. furcifera adults): 24
